# Test results taken from PubChem BioAssay (NCI).
#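 A five-concentration, 48-hour dose response in 96-well plates underlies each endpoint, interpolated linearly between surrounding concentrations. The concentration for full growth arrest is given as TGI.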
# Key:
# Experiment in all cases: growth of human tumour cells (NCI), 48 h
# [1] = system: 786-0 renal
# [2] = system: HCC-2998 colon
# [3] = system: EKVX NSCLC
# [4] = system: MCF7 breast
# [5] = system: NCI-H23 lung
# [6] = system: MALME-3M melanoma
# [7] = system: SNB-75 CNS
# [8] = system: HOP-62 NSCLC
# [9] = system: SK-MEL-28 melanoma
# [10] = system: MDA-N
# [11] = system: OVCAR-5 ovarian
# [12] = system: DU-145 prostate
# [13] = system: U251 CNS
# [14] = system: RPMI-8226 leukemia
# [15] = system: M14 melanoma
# [16] = system: NCI/ADR-RES ovarian
# [17] = system: PC-3 prostate
# [18] = system: MOLT-4 leukemia
# [19] = system: IGROV1 ovarian
# [20] = system: A498 renal
# [21] = system: SF-295 CNS
# [22] = system: BT-549 breast
# [23] = system: HCT-15 colon
# [24] = system: UACC-257 melanoma
# [25] = system: OVCAR-8 ovarian
# [26] = system: SK-MEL-5 melanoma
# [27] = system: SK-MEL-2 melanoma
# [28] = system: NCI-H226 lung
# [29] = system: RXF 393 renal
# [30] = system: SK-OV-3 ovarian
# [31] = system: SW-620 colon
# [32] = system: CCRF-CEM leukemia
# [33] = system: NCI-H460 lung
# [34] = system: HT29 colon
# [35] = system: LOX IMVI melanoma
# [36] = system: HL-60(TB) leukemia
# [37] = system: SN12C renal
# [38] = system: NCI-H522 lung
# [39] = system: COLO 205 colon
# [40] = system: UACC-62 melanoma
# [41] = system: HOP-92 NSCLC
# [42] = system: A549 NSCLC
# [43] = system: SNB-19 CNS
# [44] = system: K-562 leukemia
# [45] = system: TK-10 renal
# [46] = system: MDA-MB-231 breast
# [47] = system: SF-268 CNS
# [48] = system: T-47D breast
# [49] = system: HCT-116 colon
# [50] = system: ACHN renal
# [51] = system: HS 578T breast
# [52] = system: SR leukemia
# [53] = system: UO-31 renal
# [54] = system: SF-539 CNS
# [55] = system: CAKI-1 renal
# [56] = system: OVCAR-4 ovarian
# [57] = system: OVCAR-3 ovarian
# [58] = system: MDA-MB-435
# [59] = system: KM12 colon
smiles,measurement,setting,value
NCCN(CCN(C(=O)Nc1ccccc1)c1ccccc1)C(=O)Nc1ccccc1,TGI,[1],55.4 µM
same,TGI,[2],44.3 µM
same,TGI,[3],67.3 µM
same,TGI,[4],46.6 µM
same,TGI,[5],63 µM
same,TGI,[6],34.2 µM
same,TGI,[7],45.4 µM
same,TGI,[8],34.8 µM
same,TGI,[9],35.9 µM
same,TGI,[10],47.8 µM
same,TGI,[11],45.6 µM
same,TGI,[12],40.1 µM
same,TGI,[13],> 100 µM
same,TGI,[14],> 100 µM
same,TGI,[15],53.4 µM
same,TGI,[16],> 100 µM
same,TGI,[17],90.3 µM
same,TGI,[18],> 100 µM
same,TGI,[19],36.7 µM
same,TGI,[20],40.5 µM
same,TGI,[21],36.4 µM
same,TGI,[22],69.4 µM
same,TGI,[23],76.4 µM
same,TGI,[24],36.4 µM
same,TGI,[25],52.2 µM
same,TGI,[26],43.1 µM
same,TGI,[27],45.2 µM
same,TGI,[28],98.6 µM
same,TGI,[29],34.5 µM
same,TGI,[30],44.9 µM
same,TGI,[31],48.3 µM
same,TGI,[32],> 100 µM
same,TGI,[33],42.8 µM
same,TGI,[34],> 100 µM
same,TGI,[35],47.6 µM
same,TGI,[36],74.8 µM
same,TGI,[37],69.7 µM
same,TGI,[38],41.1 µM
same,TGI,[39],67.4 µM
same,TGI,[40],35.3 µM
same,TGI,[41],44.2 µM
same,TGI,[42],> 100 µM
same,TGI,[43],> 100 µM
same,TGI,[44],> 100 µM
same,TGI,[45],60.3 µM
same,TGI,[46],> 100 µM
same,TGI,[47],49 µM
same,TGI,[48],90.8 µM
same,TGI,[49],33.5 µM
same,TGI,[50],59.9 µM
same,TGI,[51],56 µM
same,TGI,[52],> 100 µM
same,TGI,[53],39.3 µM
Cc1ccc(C(=O)Cc2nc3c([nH]c2=O)c(C)nn3-c2ccccc2)c(C)c1,TGI,[1],> 10 µM
same,TGI,[2],> 10 µM
same,TGI,[4],> 10 µM
same,TGI,[5],> 10 µM
same,TGI,[6],> 10 µM
same,TGI,[54],> 10 µM
same,TGI,[7],3.46 µM
same,TGI,[8],> 10 µM
same,TGI,[9],> 10 µM
same,TGI,[10],> 10 µM
same,TGI,[55],> 10 µM
same,TGI,[56],5.19 µM
same,TGI,[12],> 10 µM
same,TGI,[13],> 10 µM
same,TGI,[14],> 10 µM
same,TGI,[15],> 10 µM
same,TGI,[16],> 10 µM
same,TGI,[17],> 10 µM
same,TGI,[18],> 10 µM
same,TGI,[19],> 10 µM
same,TGI,[21],> 10 µM
same,TGI,[22],> 10 µM
same,TGI,[23],> 10 µM
same,TGI,[24],> 10 µM
same,TGI,[25],> 10 µM
same,TGI,[26],> 10 µM
same,TGI,[30],> 10 µM
same,TGI,[31],> 10 µM
same,TGI,[32],> 10 µM
same,TGI,[34],> 10 µM
same,TGI,[57],8.94 µM
same,TGI,[35],> 10 µM
same,TGI,[36],> 10 µM
same,TGI,[37],> 10 µM
same,TGI,[38],> 10 µM
same,TGI,[39],> 10 µM
same,TGI,[58],> 10 µM
same,TGI,[40],> 10 µM
same,TGI,[41],> 10 µM
same,TGI,[42],> 10 µM
same,TGI,[43],> 10 µM
same,TGI,[59],> 10 µM
same,TGI,[44],> 10 µM
same,TGI,[45],> 10 µM
same,TGI,[46],> 10 µM
same,TGI,[47],> 10 µM
same,TGI,[48],> 10 µM
same,TGI,[49],> 10 µM
same,TGI,[50],> 10 µM
same,TGI,[51],> 10 µM
same,TGI,[52],> 10 µM
